This note sets out measurements from EP2424865B1 (Boehringer Ingelheim International GmbH, priority 2009, dated 2010).

The target in series [1] is T1, 11β-HSD1 (Homo sapiens, UniProt P28845).
The target of the next series is CYP2C9 (Homo sapiens, UniProt P11712). The series can be described thus: Biological Test Example 9: CYP2C9 inhibition (Invitrogen kit, fluorogenic substrate OOMR). The format is in vitro ADME.
A further series relates to Plasma protein. The series can be described thus: Biological Test Example 5: fraction unbound in human plasma (equilibrium dialysis). The format is in vitro ADME. (In general: In equilibrium dialysis free small molecules cross a membrane that holds back macromolecules.)
Series [2] deals with human recombinant cytochrome P450 3A4 (Homo sapiens, UniProt P08684).
In series [3] the target is human recombinant cytochrome P450 2C19 (Homo sapiens, UniProt P33261). The series can be described thus: Biological Test Example 8: CYP2C19 inhibition ([N-methyl-14C]-Diazepam N-demethylation).
The target in series [4] is human recombinant cytochrome P450 2C9 (Homo sapiens, UniProt P11712). The series can be described thus: Biological Test Example 7: CYP2C9 inhibition ([O-methyl-14C]-Naproxen O-demethylation).
The target in series [5] is T1, 11β-HSD1. The series can be described thus: biochemical. The conditions noted are these: read-out: Average % control inhibition at 100 nM.
Where [6] appears, read: read-out: Biological Test Example 1 IC50 Range, microsomal preparation of human 11β-HSD1, SPA.
Where [7] appears, read: read-out: Biological Test Example 1 IC50, Examples.
[8] abbreviates: Invitrogen kit, fluorogenic substrate OOMR.

Where two headings read alike, the source gives them in different places.

Sequence of human recombinant cytochrome P450 2C9 (P11712 whole entry): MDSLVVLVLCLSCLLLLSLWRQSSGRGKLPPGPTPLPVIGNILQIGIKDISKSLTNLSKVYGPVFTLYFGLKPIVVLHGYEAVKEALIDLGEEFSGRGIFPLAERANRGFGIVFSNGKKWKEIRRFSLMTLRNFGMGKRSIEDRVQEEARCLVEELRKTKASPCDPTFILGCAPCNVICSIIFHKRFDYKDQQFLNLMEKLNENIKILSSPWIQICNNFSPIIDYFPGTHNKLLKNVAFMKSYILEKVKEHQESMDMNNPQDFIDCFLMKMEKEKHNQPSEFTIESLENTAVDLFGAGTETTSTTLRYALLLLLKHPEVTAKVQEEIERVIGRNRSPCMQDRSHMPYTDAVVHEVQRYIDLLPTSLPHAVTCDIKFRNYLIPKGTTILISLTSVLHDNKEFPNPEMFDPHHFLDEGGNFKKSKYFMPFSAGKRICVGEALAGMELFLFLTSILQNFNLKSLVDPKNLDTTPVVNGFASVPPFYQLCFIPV
Sequence of CYP2C9 (P11712 whole entry): as above
Sequence of human recombinant cytochrome P450 3A4 (P08684 whole entry): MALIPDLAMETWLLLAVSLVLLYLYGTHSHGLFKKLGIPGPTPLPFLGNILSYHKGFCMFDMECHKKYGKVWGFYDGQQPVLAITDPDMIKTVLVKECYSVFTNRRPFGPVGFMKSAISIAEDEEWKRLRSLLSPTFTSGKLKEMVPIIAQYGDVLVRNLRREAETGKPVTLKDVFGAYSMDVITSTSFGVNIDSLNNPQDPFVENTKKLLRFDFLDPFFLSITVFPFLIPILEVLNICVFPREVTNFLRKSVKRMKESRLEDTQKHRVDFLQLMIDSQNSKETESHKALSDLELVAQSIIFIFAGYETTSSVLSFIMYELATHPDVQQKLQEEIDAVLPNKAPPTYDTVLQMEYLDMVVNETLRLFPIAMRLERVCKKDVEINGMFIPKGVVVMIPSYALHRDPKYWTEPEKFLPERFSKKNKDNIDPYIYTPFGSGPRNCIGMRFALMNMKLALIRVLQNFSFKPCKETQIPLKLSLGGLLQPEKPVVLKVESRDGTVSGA
Sequence of human recombinant cytochrome P450 2C19 (P33261 whole entry): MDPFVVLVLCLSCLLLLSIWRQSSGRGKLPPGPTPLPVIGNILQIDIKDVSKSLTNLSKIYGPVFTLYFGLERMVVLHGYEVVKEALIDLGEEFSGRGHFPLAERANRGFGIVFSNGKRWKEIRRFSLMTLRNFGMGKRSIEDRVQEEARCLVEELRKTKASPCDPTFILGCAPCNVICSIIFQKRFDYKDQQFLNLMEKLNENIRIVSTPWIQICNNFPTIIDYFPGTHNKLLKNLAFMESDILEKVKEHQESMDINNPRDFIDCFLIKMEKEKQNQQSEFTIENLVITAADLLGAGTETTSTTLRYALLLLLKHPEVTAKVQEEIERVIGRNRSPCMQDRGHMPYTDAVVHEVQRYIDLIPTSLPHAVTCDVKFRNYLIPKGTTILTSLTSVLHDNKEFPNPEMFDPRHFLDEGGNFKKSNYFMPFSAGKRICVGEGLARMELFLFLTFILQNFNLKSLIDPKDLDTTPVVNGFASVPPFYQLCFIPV
T1 sequence (P28845 whole entry): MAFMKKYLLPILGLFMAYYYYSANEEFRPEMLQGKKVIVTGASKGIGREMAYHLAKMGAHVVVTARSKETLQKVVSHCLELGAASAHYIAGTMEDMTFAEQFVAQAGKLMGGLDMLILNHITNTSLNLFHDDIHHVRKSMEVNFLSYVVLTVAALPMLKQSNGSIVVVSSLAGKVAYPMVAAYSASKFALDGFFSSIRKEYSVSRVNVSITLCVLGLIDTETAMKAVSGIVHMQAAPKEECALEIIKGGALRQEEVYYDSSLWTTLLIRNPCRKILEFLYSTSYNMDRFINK

`C[C@@H](c1ccc(-c2ccn(C3CC3)c(=O)c2)cc1)N1CCC(CC(C)(C)O)(C2CCOCC2)OC1=O` (single isomer, unassigned) [Example 91 Isomer 2]: the “Biological Test Example 1 Average % inhibition at 100 nM” value on 11β-HSD1 [1] (0.1 µM) is given as 13.8%. In addition, the IC50 (usually the concentration that gives 50% inhibition) on 11β-HSD1 [1] (setting [6]) is over 0.1 µM.
Take `C[C@@H](c1ccc(-c2ccn(C3CC3)c(=O)c2)cc1)N1CCC(CC(C)(C)C)(CC(C)(C)O)OC1=O` (single isomer, unassigned) [Example 94 Isomer 2]: the “Biological Test Example 1 Average % inhibition at 100 nM” value at 11β-HSD1 [1] (listed as EXAMPLE 94 Isomer 2, 0.1 µM) is 8.2%. Besides, the half-inhibitory concentration (IC50) on 11β-HSD1 [1] (setting [6]) is over 0.1 µM.
Turning to `C[C@@H](c1ccc(-c2ccn(C3CC3)c(=O)c2)cc1)N1CCC(CC(C)(C)O)(C2CC(F)(F)C2)OC1=O` (single isomer, unassigned) [Example 95 Isomer 2], on 11β-HSD1 [1] (0.1 µM), the “Biological Test Example 1 Average % inhibition at 100 nM” value was found to be 8.0%. Further, the IC50 at 11β-HSD1 [1] (setting [6]) was over 0.1 µM.
In the case of `C[C@@H](c1ccc(-c2ccn(C3CC3)c(=O)c2)cc1)N1CCC(CC(C)(C)O)(C2CCOCC2)OC1=O` (single isomer, unassigned; isomer 1) [91 Isomer 1], the IC50 at 11β-HSD1 [1] (setting [7]) was over 0.1 µM.
The same measure, in the same setting: for `C[C@@H](c1ccc(-c2ccn(C3CC3)c(=O)c2)cc1)N1CCC(CC(C)(C)C)(CC(C)(C)O)OC1=O` (single isomer, unassigned; isomer 1) [94 Isomer 1] the value was over 0.1 µM; for `C[C@@H](c1ccc(-c2ccn(C3CC3)c(=O)c2)cc1)N1CCC(CC(C)(C)O)(C2CC(F)(F)C2)OC1=O` (single isomer, unassigned; isomer 1) [95 Isomer 1], over 0.1 µM; for `C[C@@H](c1ccc(-c2ccn(C3CC3)c(=O)c2)cc1)N1CCC(CC(C)(C)O)(C2CCOCC2)OC1=O` (single isomer, unassigned; isomer 2) [91 Isomer 2], over 0.1 µM.
For `C[C@@H](c1ccc(-c2ccc(=O)[nH]c2)cc1)N1CC[C@](CC(C)(C)O)(c2ccccc2)OC1=O` [Example 1, (S)-6-(2-hydroxy-2-methytpropyl)-3-((S)-1-(4-(6-oxo-1,6-dihydropyridin-3-yl)phenyl)ethyl)-6-phenyl-1,3-oxazinan-2-one], the concentration for half-maximal inhibition (IC50) at CYP2C9 (read-out: Biological Test Example 9 CYP2C9 IC50, comparator compounds, Invitrogen kit, fluorogenic substrate OOMR) is 27 µM.
Regarding `C[C@@H](c1ccc(-c2ccc(=O)n(C)c2)cc1)N1CC[C@](CC(C)(C)N(C)S(C)(=O)=O)(c2ccccc2)OC1=O` [Example 12, N-methyl-N-(2-methyl-1-((S)-3-((S)-1-(4-(1-methyl-6-oxo-1,6-dihydropyridin-3-yl)phenyl)ethyl)-2-oxo-6-phenyl-1,3-oxazinan-6-yl)propan-2-yl)methanesulfonamide], in the series on Plasma protein (Comparator Compounds), the “Biological Test Example 5 (%)” value is given as 0.4%. Besides, the 50% inhibitory concentration (IC50) on CYP2C9 (setting [8]) turned out to be 12.1 µM.
Compound `C[C@@H](c1ccc(-c2ccc(=O)[nH]c2)cc1)N1CC[C@](CCCO)(c2ccccc2)OC1=O` [Example 29, (R)-6-(3-hydroxypropyl)-3-((S)-1-(4-(6-oxo-1,6-dihydropyridin-3-yl)phenyl)ethyl)-6-phenyl-1,3-oxazinan-2-one] had a concentration for half-maximal inhibition (IC50) at CYP2C9 (setting [8]) of 7.5 µM.
As for `C[C@@H](c1ccc(-c2ccc(=O)n(C)c2)cc1)N1CC[C@](CC(C)(C)O)(c2ccc(F)cc2)OC1=O` [Example 32, (S)-6-(4-fluorophenyl)-6-(2-hydroxy-2-methylpropyl)3-((S)-1-(4-(1-methyl-6-oxo-1,6-dihydropyridin-3-yl)phenyl)ethyl)-1,3-oxazinan-2-one], the “Biological Test Example 5 (%)” value in the series on Plasma protein (Examples) stood at 12.3%. On CYP2C9 (setting [8]), half-maximal inhibition (IC50) was put at 28.7 µM.
`C[C@@H](c1ccc(-c2ccc(=O)n(C)c2)cc1)N1CC[C@](CCCO)(c2ccc(F)cc2)OC1=O` [Example 33, (R)-6-(4-fluorophenyl)-6-(3-hydroxypropyl)-3-((S)-1-(4-(1-methyl-6-oxo-1,6-dihydropyridin-3-yl)phenyl)ethyl)-1,3-oxazinan-2-one]: the IC50 is over 50 µM in series [2], 24.6 µM against CYP2C9 (setting [8]), 17 µM in series [3] and 43 µM in series [4].
Turning to `C[C@@H](c1ccc(-c2ccc(=O)n(C)c2)cc1)N1CC[C@](CC(C)(C)O)(c2ccccc2)OC1=O` [Example 37, (S)-6-(2-hydroxy-2-methylpropyl)-3-((S)-1-(4-(1-methyl-6-oxo-1,6-dihydropyridin-3-yl)phenyl)ethyl)-6-phenyl-1,3-oxazinan-2-one], the “Biological Test Example 5 (%)” value in the series on Plasma protein (Examples) came out at 14.6%. For the same compound, the IC50 in series [2] is 48 µM; on CYP2C9, 24.8 µM; in series [4] it was 43 µM.
For the compound `CC[C@@H](c1ccc(-c2ccc(=O)n(C)c2)cc1)N1CC[C@](CCO)(c2ccccc2)OC1=O` [Example 40, (S)-6-(2-hydroxyethyl)-3-((S)-1-(4-(1-methyl-6-oxo-1,6-dihydropyridin-3-yl)phenyl)propyl)-6-phenyl-1,3-oxazinan-2-one], the figures for the IC50 (against CYP2C9; in series [3]) were 27.9 µM and 13 µM, respectively.
At CYP2C9, `CCn1cc(-c2ccc([C@H](C)N3CC[C@](CCCO)(c4ccccc4)OC3=O)cc2)ccc1=O` [Example 43, (R)-3-((S)-1-(4-(1-ethyl-6-oxo-1,6-dihydropyridin-3-yl)phenyl)ethyl)-6-(3-hydroxypropyl)-6-phenyl-1,3-oxazinan-2-one] registered a concentration for half-maximal inhibition (IC50) of 10.5 µM.
`C[C@@H](c1ccc(-c2ccn(C)c(=O)c2)cc1)N1CC[C@](CCCO)(c2ccccc2)OC1=O` [Example 47, (R)-6-(3-hydroxypropyl)-3-((S)-1-(4-(1-methyl-2-oxo-1,2-dihydropyridin-4-yl)phenyl)ethyl)-6-phenyl-1,3-oxazinan-2-one] had a concentration for half-maximal inhibition (IC50) at CYP2C9 (setting [8]) of 12.1 µM.
On to `C[C@@H](c1ccc(-c2ccc(=O)n(C)c2)cc1)N1CC[C@](CC(C)(C)C#N)(c2ccccc2)OC1=O` [Example 49, 2,2-dimethyl-3-((R)-3-((S)-1-(4-(1-methyl-6-oxo-1,6-dihydropyridin-3-yl)phenyl)ethyl)-2-oxo-6-phenyl-1,3-oxazinan-6-yl)propanenitrile], for which the IC50 was 32 µM in series [2], 14.8 µM against CYP2C9 (setting [8]), 46 µM in series [3] and 29 µM in series [4].
Take `C[C@@H](c1ccc(-c2ccn(C)c(=O)c2)cc1)N1CC[C@](CC(C)(C)C#N)(c2ccccc2)OC1=O` [Example 50, 2,2-dimethyl-3-((R)-3-((S)-1-(4-(1-methyl-2-oxo-1,2-dihydropyridin-4-yl)phenyl)ethyl)-2-oxo-6-phenyl-1,3-oxazinan-6-yl)propanenitrile]: the IC50 in series [2] turned out to be 14 µM; against CYP2C9 it was 5.1 µM; in series [3], 27 µM; in series [4] it was 11 µM.
Take `CC[C@@H](c1ccc(-c2ccn(C)c(=O)c2)cc1)N1CC[C@](CC(C)(C)O)(c2ccccc2)OC1=O` [Example 55, (S)-6-(2-hydroxy-2-methylpropyl)-3-((S)-1-(4-(1-methyl-2-oxo-1,2-dihydropyridin-4-yl)phenyl)propyl)-6-phenyl-1,3-oxazinan-2-one]: the “Biological Test Example 5 (%)” value with Plasma protein (Examples) is 7.1%. In addition, the half-maximal inhibitory concentration (IC50) in series [2] was over 50 µM; against CYP2C9 it was 24.3 µM; in series [3] it was 13 µM; in series [4], 29 µM.
In the case of `C[C@@H](c1ccc(-c2ccn(CC(F)(F)F)c(=O)c2)cc1)N1CC[C@](CC(C)(C)O)(c2ccccc2)OC1=O` [Example 66, (S)-6-(2-hydroxy-2-methylpropyl)-3-((S)-1-(4-(2-oxo-1-(2,2,2-trifluoroethyl)-1,2-dihydropyridin-4-yl)phenyl)ethyl)-6-phenyl-1,3-oxazinan-2-one], the “Biological Test Example 5 (%)” value with Plasma protein (Examples) was 5.5%. Also, the figures for the 50% inhibitory concentration (IC50) in series [2], in series [3] and in series [4] were 18 µM, 11 µM and 10 µM, respectively.
The like results for `C[C@@H](c1ccc(-c2ccn(C3CC3)c(=O)c2)cc1)N1CC[C@](CC(C)(C)O)(c2ccccc2)OC1=O` [Example 75, 3-{(S)-1-[4-(1-Cyclopropyl-2-oxo-1,2-dihydro-pyridin-4-yl)-phenyl]-ethyl}-(S)-6-(2-hydroxy-2-methyl-propyl)-6-phenyl-[1,3]oxazinan-2-one] were, in that order, 15.6%, 23 µM, 24 µM and 19 µM.
On to `C[C@@H](c1ccc(-c2cc(=O)n(C)cc2F)cc1)N1CC[C@](CC(C)(C)O)(c2ccccc2)OC1=O` [Example 79, 3-{(S)-1-[4-(5-Fluoro-1-methyl-2-oxo-1,2-dihydro-pyridin-4-yl)-phenyl]-ethyl}-(S)-6-(2-hydroxy-2-methyl-propyl)-6-phenyl-[1,3]oxazinan-2-one], for which the inhibition (as a rule, the share of the control response that was lost under treatment) at 0.1 µM on 11β-HSD1 [5] came out at 15%.
`C[C@@H](c1ccc(-c2ccn(CC(C)(C)O)c(=O)c2)cc1)N1CC[C@](CC(C)(C)O)(c2ccccc2)OC1=O` [Example 80, (S)-6-(2-Hydroxy-2-methyl-propyl)-3-((S)-1-{4-[1-(2-hydroxy-2-methylpropyl)-2-oxo-1,2-dihydro-pyridin-4-yl]-phenyl}-ethyl)-6-phenyl-[1,3]oxazinan-2-one]: the inhibition at 0.1 µM at 11β-HSD1 [5] amounted to 37%. In addition, the half-inhibitory concentration (IC50) in series [3] was 38 µM.
Regarding `C[C@@H](c1ccc(-c2ccn(CC(C)(C)CO)c(=O)c2)cc1)N1CC[C@](CC(C)(C)O)(c2ccccc2)OC1=O` [Example 90, 3-((S)-1-{4-[1-(3-Hydroxy-2,2-dimethyl-propyl)-2-oxo-1,2-dihydro-pyridin-4-yl]-phenyl}-ethyl)-(S)-6-(2-hydroxy-2-methyl-propyl)-6-phenyl-[1,3]oxazinan-2-one], the inhibition at 0.1 µM at 11β-HSD1 [5] was found to be 4%.
Still for that read-out and setting: for `Cc1cc(-c2ccn(C3CC3)c(=O)c2)cc(C)c1CN1CCC(CC(C)(C)O)(c2ccccc2)OC1=O` (stereo not drawn) [Example 98] the value was 67%.
